Values joined by “and” are separate entries in the source; they are usually repeats but may differ in a detail not shown here. Equal values may be shown once. Marks after values point to notes of the source that are not given here.
Test system: not listed separately
Assay: Intrinsic (maximum) solubility in water at pH 1.5
Format: physicochemical
Settings: 25 °C, pH 1.5, simulated gastric fluid
Description: The pH conditions were chosen to ensure that the solubility of the unionised species was estimated. […] Lea & Febiger/Philadelphia. […] […] The solvent (9.9 mL) was then added to the test tube. […] The test tube was sonicated for 15 minutes and centrifuged for 10 minutes (3000 g at 25° C.). An aliquot was filtered (Minisart 0.45 μm filter, Satorius) and diluted with HPLC mobile phase, then assayed. The tube was stored carefully in a 25° C. water bath after sampling and the remaining suspension was again sonicated and the process repeated 7 times at four hourly intervals. In these assays, standard curves were prepared by directly dissolving the esters in mobile phase. Concentrations for standard curves ranged from 1-50 μg/mL for all compounds. Furthermore, a manual injector (Waters Model U6K) was used (20 μL sample loop) which ensured that 20 μL was consistently injected onto the column and precluded the need for an internal standard.

SMILES	solubility
CCCCC(=O)Oc1ccccc1C(=O)O [Compound C5SA, n-pentanoylsalicylic acid]	74 µg/mL and 330 µM
CCCC(=O)Oc1ccccc1C(=O)O [Compound C4SA, n-butanoylsalicylic acid]	570 µg/mL and 2700 µM
CCCCCC(=O)Oc1ccccc1C(=O)O [Compound C6SA, n-hexanoylsalicylic acid]	19 µg/mL and 80 µM

Same assay, conditions: water at pH 1.5, 25 1° C.; U = Undetectable

SMILES	Maximum solubility [µM]
CC(=O)Oc1ccc(-c2ccc(F)cc2F)cc1C(=O)O [Compound C2D, acetyldiflunisal]	30

Test system: in-situ perfused rat liver
Assay: In-situ rat liver perfusion bolus studies, moments and dispersion model analysis (Example 3)
Format: in vitro ADME, Sprague-Dawley rats
Settings: determined using equation 5 & 6; n = 3, Mean S.E.
Description: Mature female Sprague-Dawley rats were obtained from the University of Queensland Animal Breeding Facility and weighed between 180-270 grams. The animals were given access to a standard laboratory diet prior to experiment. Rats were anaesthetised by interperitoneal injection of pentobarbital sodium (60 mg/kg, Boehringer Ingelhein). […] The bile duct was cannulated with PE10 (Clay Adams, New Jersey). 0.025 gm/L taurocholic acid (Sigma Co., USA.) was dissolved in perfusate to stimulate bile production. The portal vein was then cannulated using a 16 G intravenous catheter and the liver was perfused via this cannula with 2% BSA Krebs-Henseleit bicarbonate buffer (pH 7.4) and oxygenated using a silastic tubing lung ventilated with carbogen (95% O2/5% CO2). The perfusion system used was non-recirculating and employed a peristaltic pump (Cole-Parmer, Illinois).
The animal was placed in a temperature controlled perfusion cabinet at 37° C. Liver viability was assessed by oxygen consumption, bile flow, diflunisal esters' extraction and macroscopic appearance.
Perfusions were made at 30 mL/min in each liver. After a 10 minute perfusion stabilization period, injectate (50 μL) containing Evans Blue (3 mg/mL) and [^3H]-water in a saturated solution of the particular O-acyl diflunisal ester or pregenerated diflunisal (which was injected as parent compound) in 2% BSA Krebs-Henseleit buffer, was injected into the liver with outlet samples collected via a fraction collector over one minute.
Aliquots (100 μL) of pooled perfusate samples were taken for Evans Blue spectrophotometric analysis and [^3H]-water scintillation counting before adjusting pH. These pooled samples were then acidified to pH 2.0 by addition of 1 M HCl and extracted into 2.5 volumes of ether. […] The ether fraction was then removed and reduced to approximately 100 μL by evaporation under air and prepared as before for HPLC analysis. A known concentration of each buffer solution of ester was concurrently extracted and assayed with the perfusate samples to assess the degree of spontaneous hydrolysis occurring over the duration of the extraction procedure. This non-enzymatic hydrolysis was converted for in the analysis. The total recovery of diflunisal esters extracted using this technique was >90%.
The F, MTT and CV^2 for the diflunisal esters (or pregenerated DF) and the reference solutes (EB and [^3H]-water) were determined from the outflow concentration versus time profile using equation (1)-(4), with the assistance of the Moments Calculator 2.2 program for Macintosh computer developed by Robert Purves (Purves RD, 1994, J. Pharm. Sci. 83 202-205). [formula] [formula]
where Q is the perfusate flow rate, D is the dose of diflunisal esters administered. The area under the concentration-time curve (AUC) and the first moment curve (AUMC) were estimated by the trapezoidal rule integration with appropriate modification for tail (Mellick et al., 1996, submitted for publication). [formula]
The moment data was further examined using the dispersion model of hepatic elimination which defines F of an extracted solute by the equation (Roberts et al., 1990, J. Pharmacokin. Biopharm. 18 209-234): [formula]
a={square root over (1+4RNDN)} (6)
DN is the dispersion number which describes the spread of solute residence times in the liver following bolus input and equal half the normalized variance for a non-extracted reference indicator [formula]
RN is the efficiency number which characterises the elimination of solute by the liver and is defined by the equation: [formula]
(Gillette, 1971, Ann. N. Acad. Sci. 179 43-61)), and Q is the perfusate flow rate. If F for a solute and the CV^2 for a non-extracted reference solute (eg. EB) are known, we can solve for “a” using equation (5) and then for “RN” using equation (6).
The dispersion model expressions (Roberts et al., 1990) for MTT and CV^2 are presented in equations (8) and (9). [formula] [formula] […]

SMILES	RN (efficiency number)	a (dispersion model)
CCCCCC(=O)Oc1ccc(-c2ccc(F)cc2F)cc1C(=O)O [Compound C6D, n-hexanoyldiflunisal]	1.32 ± 0.03	1.77 ± 0.03
O=C(O)c1cc(-c2ccc(F)cc2F)ccc1O [DF, 2′,4′-difluoro-4-hydroxy-3-biphenylcarboxylic acid, reference compound]		1.33 ± 0.01
CCCC(=O)Oc1ccc(-c2ccc(F)cc2F)cc1C(=O)O [Compound C4D, n-butanoyldiflunisal]	1.56 ± 0.02	1.87 ± 0.01
CCCCC(=O)Oc1ccc(-c2ccc(F)cc2F)cc1C(=O)O [Compound C5D, n-pentanoyldiflunisal]	1.32 ± 0.03	1.77 ± 0.02
CC(=O)Oc1ccc(-c2ccc(F)cc2F)cc1C(=O)O [Compound C2D, acetyldiflunisal]	2.58 ± 0.02	2.26 ± 0.02^c

Same assay, conditions: moments analysis, bolus, n = 3, Mean S.E.; 2% BSA perfusate, 30 mL/min

SMILES	CV^2 (normalized variance)	F (hepatic availability)	MTT (mean transit time) [s]
CCCCCC(=O)Oc1ccc(-c2ccc(F)cc2F)cc1C(=O)O [Compound C6D, n-hexanoyldiflunisal]	1.15 ± 0.48	0.38 ± 0.04	6.19 ± 0.95
O=C(O)c1cc(-c2ccc(F)cc2F)ccc1O [DF, 2′,4′-difluoro-4-hydroxy-3-biphenylcarboxylic acid, reference compound]	0.99 ± 0.27		6.80 ± 0.94
CCCC(=O)Oc1ccc(-c2ccc(F)cc2F)cc1C(=O)O [Compound C4D, n-butanoyldiflunisal]	1.01 ± 0.18	0.34 ± 0.01	7.73 ± 0.99
CCCCC(=O)Oc1ccc(-c2ccc(F)cc2F)cc1C(=O)O [Compound C5D, n-pentanoyldiflunisal]	1.02 ± 0.33	0.38 ± 0.02	6.62 ± 0.84
CC(=O)Oc1ccc(-c2ccc(F)cc2F)cc1C(=O)O [Compound C2D, acetyldiflunisal]	0.70 ± 0.19	0.21 ± 0.03	10.36 ± 2.31

Same assay, conditions: n = 3, Mean S.E.

SMILES	RN/fub (removal of unbound solute)
CCCCCC(=O)Oc1ccc(-c2ccc(F)cc2F)cc1C(=O)O [Compound C6D, n-hexanoyldiflunisal]	16.50 ± 0.22
O=C(O)c1cc(-c2ccc(F)cc2F)ccc1O [DF, 2′,4′-difluoro-4-hydroxy-3-biphenylcarboxylic acid, reference compound]	9.51 ± 0.18
CCCC(=O)Oc1ccc(-c2ccc(F)cc2F)cc1C(=O)O [Compound C4D, n-butanoyldiflunisal]	11.17 ± 0.38
CCCCC(=O)Oc1ccc(-c2ccc(F)cc2F)cc1C(=O)O [Compound C5D, n-pentanoyldiflunisal]	11.04 ± 0.39
CC(=O)Oc1ccc(-c2ccc(F)cc2F)cc1C(=O)O [Compound C2D, acetyldiflunisal]	9.57 ± 0.37

Same assay, conditions: n = 3, Mean S.E.; listed as acetyl

SMILES	RN/fub (removal of unbound solute)
CC(=O)Oc1ccc(-c2ccc(F)cc2F)cc1C(=O)O [Compound C2D, acetyldiflunisal]	9.57

Same assay, conditions: n = 3, Mean S.E.; listed as hexanoyl

SMILES	RN/fub (removal of unbound solute)
CCCCCC(=O)Oc1ccc(-c2ccc(F)cc2F)cc1C(=O)O [Compound C6D, n-hexanoyldiflunisal]	16.50

Same assay, conditions: two-compartment dispersion model fitting, n = 3, Mean S.E.; 2% BSA perfusate

SMILES	Efflux rate coefficient (k2) [s⁻¹]	Elimination rate coefficient (kel) [s⁻¹]	Influx rate coefficient (k1)
CCCCCC(=O)Oc1ccc(-c2ccc(F)cc2F)cc1C(=O)O [Compound C6D, n-hexanoyldiflunisal]	0.06 ± 0.03	0.15 ± 0.03	0.63 ± 0.24 s⁻¹
O=C(O)c1cc(-c2ccc(F)cc2F)ccc1O [DF, 2′,4′-difluoro-4-hydroxy-3-biphenylcarboxylic acid, reference compound]	0.02 ± 0.01	0.06 ± 0.01	0.18 ± 0.03^b sec^−1
CCCC(=O)Oc1ccc(-c2ccc(F)cc2F)cc1C(=O)O [Compound C4D, n-butanoyldiflunisal]	0.08 ± 0.04	0.16 ± 0.07	0.41 ± 0.12 s⁻¹
CCCCC(=O)Oc1ccc(-c2ccc(F)cc2F)cc1C(=O)O [Compound C5D, n-pentanoyldiflunisal]	0.14 ± 0.07	0.18 ± 0.06	0.51 ± 0.16 s⁻¹
CC(=O)Oc1ccc(-c2ccc(F)cc2F)cc1C(=O)O [Compound C2D, acetyldiflunisal]	0.25 ± 0.03	0.18 ± 0.02	1.20 ± 0.11 s⁻¹

Target: T1, BSA (bovine serum albumin) (Bos taurus, UniProt P02769)
T1 construct: BSA (bovine serum albumin, fraction V, Sigma); purchased Sigma; host or cells: bovine serum (fraction V)
Assay: not given
Settings: 2% BSA; Hung et al., 1996; cited from earlier work

T1 sequence (P02769 25-607): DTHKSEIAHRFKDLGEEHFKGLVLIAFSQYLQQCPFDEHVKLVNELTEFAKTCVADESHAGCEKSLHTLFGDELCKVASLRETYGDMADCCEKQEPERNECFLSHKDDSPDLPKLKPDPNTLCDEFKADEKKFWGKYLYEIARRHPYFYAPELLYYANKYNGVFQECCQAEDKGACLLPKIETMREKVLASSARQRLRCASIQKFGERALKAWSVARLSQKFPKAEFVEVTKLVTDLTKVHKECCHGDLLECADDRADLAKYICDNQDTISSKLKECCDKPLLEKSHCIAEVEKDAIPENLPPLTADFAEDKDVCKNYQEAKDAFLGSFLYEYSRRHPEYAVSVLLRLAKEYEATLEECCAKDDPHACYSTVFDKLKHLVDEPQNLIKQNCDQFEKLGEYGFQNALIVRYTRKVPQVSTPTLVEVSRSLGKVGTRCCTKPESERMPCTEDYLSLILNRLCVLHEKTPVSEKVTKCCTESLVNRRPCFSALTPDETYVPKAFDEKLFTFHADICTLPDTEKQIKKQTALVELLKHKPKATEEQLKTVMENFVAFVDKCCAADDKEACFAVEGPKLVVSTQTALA

SMILES	fub (unbound fraction)
CCCCCC(=O)Oc1ccc(-c2ccc(F)cc2F)cc1C(=O)O [Compound C6D, n-hexanoyldiflunisal]	0.08 ± 0.00
CCCC(=O)Oc1ccc(-c2ccc(F)cc2F)cc1C(=O)O [Compound C4D, n-butanoyldiflunisal]	0.14 ± 0.01
CCCCC(=O)Oc1ccc(-c2ccc(F)cc2F)cc1C(=O)O [Compound C5D, n-pentanoyldiflunisal]	0.12 ± 0.01
CC(=O)Oc1ccc(-c2ccc(F)cc2F)cc1C(=O)O [Compound C2D, acetyldiflunisal]	0.27 ± 0.02

Source: US6593365B1, “Diflunisal esters and related compounds” (The University of Queensland, priority 1997, dated 2003)
